Reference: ChEMBL document CHEMBL1201862, “PubChem BioAssay data set” (2004)
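Grown in 96-well plates, cells were treated for 48 hours with each compound at five concentrations. Insufficient inhibition: endpoint recorded as highest concentration tested. GI50: concentration for 50% inhibition of growth.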 Active and inactive are the calls of the source. Cut-off read from the data, not from the text of the source: active = GI50 up to about 1.1 µM and inactive = higher.

Assays:
Test in all cases: NCI anticancer screen, dose series, 48 h
NCI-H226 = system: NCI-H226
M19-MEL = system: M19-MEL
MCF7 = system: MCF7
SK-OV-3 = system: SK-OV-3
UO-31 = system: UO-31
DMS-273 = system: DMS-273
NCI/ADR-RES = system: NCI/ADR-RES
HOP-18 = system: HOP-18
SNB-78 = system: SNB-78
HOP-92 = system: HOP-92
COLO 205 = system: COLO 205
EKVX = system: EKVX
ACHN = system: ACHN
HL-60 = system: HL-60
DMS-114 = system: DMS-114
TK-10 = system: TK-10
UACC-62 = system: UACC-62
SN12C = system: SN12C
MDA-MB-231 = system: MDA-MB-231
T47D = system: T47D

Measured: GI50

COc1cc(/C=C(\C#N)C(N)=O)cc(Br)c1O
inactive: NCI-H226 > 100 µM | M19-MEL > 100 µM | MCF7 95.1 µM | SK-OV-3 > 100 µM | UO-31 96.6 µM | DMS-273 > 100 µM | NCI/ADR-RES > 100 µM | HOP-18 > 100 µM | SNB-78 > 100 µM

C/C=C/c1cc(=O)c([C@@H]2OC(=O)c3cc(OC)cc(OC)c32)co1 [VERMISTATIN]
inactive: HOP-92 49 µM | NCI-H226 60.4 µM | M19-MEL 35.1 µM | COLO 205 22 µM | UO-31 24.4 µM | EKVX 65.5 µM | ACHN 45.3 µM | HL-60 27.4 µM | DMS-114 21.7 µM | TK-10 57.5 µM | UACC-62 25.9 µM

CC1SC(c2ccccc2)N(Nc2c3ccccc3nc3ccccc23)C1=O (centres undefined)
inactive: NCI-H226 55.3 µM | M19-MEL > 100 µM | SK-OV-3 28.4 µM | SN12C > 100 µM | COLO 205 > 100 µM | UO-31 20.4 µM | DMS-273 > 100 µM | EKVX 48.2 µM | ACHN > 100 µM | DMS-114 45.5 µM | SNB-78 > 100 µM | UACC-62 89.5 µM

CCCCN1C=CN2c3nc4cc(C)c(C)cc4n3C(C(=O)OC)=C(C(=O)OC)C12 (centres undefined)
inactive: HOP-92 > 100 µM | M19-MEL > 100 µM | SK-OV-3 > 100 µM | SN12C > 100 µM | UO-31 > 100 µM | DMS-273 > 100 µM | EKVX > 100 µM | ACHN > 100 µM | HL-60 > 100 µM | DMS-114 > 100 µM | HOP-18 > 100 µM | SNB-78 > 100 µM | TK-10 > 100 µM | UACC-62 > 100 µM

CCCCCCCCCCCCCCCCCC(=O)OCC1OC(OC)C(NC(=O)N(CCCl)N=O)C(O)C1O (centres undefined)
inactive: NCI-H226 24.9 µM | M19-MEL 71.4 µM | SN12C 11.4 µM | COLO 205 30.3 µM | UO-31 24.3 µM | DMS-273 16 µM | ACHN 15.7 µM | HOP-18 32.6 µM | SNB-78 40.4 µM | TK-10 38.3 µM | UACC-62 2.99 µM

COC(=O)C1=C(OC(=O)/C(=C/c2ccc(Cl)cc2)c2ccc(Cl)cc2)C(C(=O)OC)[C@]2(O)[C@@H](C(=O)OC)[C@H]1C[C@@H](c1ccccc1)[C@@H]2C(=O)OC (some centres undefined)
inactive: NCI-H226 > 100 µM | SK-OV-3 64 µM | SN12C > 100 µM | COLO 205 > 100 µM | EKVX 70.5 µM | NCI/ADR-RES > 100 µM | ACHN > 100 µM | HL-60 > 100 µM | MDA-MB-231 50.6 µM | TK-10 > 100 µM | UACC-62 > 100 µM | T47D > 100 µM
